According to patent US20110142884A1, “Materials and Methods for Making Improved Micelle Compositions” (The Board of Trustees of the University of Illinois, priority 2002, published 2011):
Converted amounts (≈) assume the structure as drawn. No end group written: not given here.

What was measured:
[1] = Circular dichroism (CD) spectral analysis of peptide conformation, % helicity; format: physicochemical; details: room temperature
Method: According to this example, circular dichroism (CD) experiments were performed to determine the conformation changes of VIP in phospholipid micelles, pH and temperature changes, and in aqueous solutions. CD spectra were recorded on a JASCO J-700 spectropolarimeter using a fused quartz cell of 1 cm pathlength. Spectra in 0.15 N saline (pH 6.8) and 5 mM Hepes buffer (pH 7.4) were measured at a peptide concentration of 4 μM and at a lipid concentration of 1 mM. The effects of CaM, pH (6.8 or 7.4) and temperature (25° C. or 37° C.) on VIP conformation were also studied. The conformation of VIP fragments was likewise studied. All measurements were carried out at room temperature (˜25° C.) unless otherwise noted. A bandwidth of 1.0 nm and a step resolution of 0.5 nm were used to collect an average of 9 accumulations/sample at the […] (200-260 nm wavelength). The peptide spectra shown have the background buffer scans, and empty vesicle scans subtracted and were smoothed using the noise reduction function. The temperature during spectral analysis was maintained by using a circulating water bath attached to a jacket surrounding the fused quartz CD cell. The percent helical characterization of VIP was determined by a method of Haghjoo et al., Peptide Research 9 (6):327-331 (1996): % helicity=[−(θ208+4000)/29 000]*100 and are reported in table 1.
According to the example, CD was used to determine the conformation of VIP in saline, Hepes buffer and phospholipid micelles at room temperature and at 37° C. The CD spectra analysis was performed after 13 μg of human VIP incubated with 1 ml PEG-DSPE (1 μmol) micelles for 30 min at room temperature as determined by preliminary studies. A bandwidth of 1.0 nm and a step resolution of 0.5 nm were used to collect an average of 9 accumulations/sample at near UV range (200-260 nm). The temperature was maintained during spectral analysis by a circulating water bath attached to a jacket surrounding the fused quartz CD cell. The evaluation of VIP molecule conformation in SSM by using circular dichroism was successful because the distortion caused by spherical particles was eliminate due to the small size and univesicular structure of the SSM. […] The phospholipid micelles were ideal in our study of VIP conformation since it provided a hydrophobic core similar to the phospholipid bilayer of the SSL. Moreover, both the negative charge, and the hydrophilic layer provided by the PEG mimic the conditions of our SSL and make it possible to infer the VIP conformational results.
According to this example, the method of example 4 was repeated to determine the conformation of VIP in saline and phospholipid micelles plus calmodulin (CaM). CD spectra measurements were performed after 13 μg/ml of VIP was incubated with 1.0 μmol/ml of phospholipid micelles for 30 min followed by 10^−10 M CaM incubated with VIP in phospholipid micelles for 2 h at 4° C. (conjugation paper). A bandwidth of 1.0 nm and a step resolution of 0.5 nm were used to collect the average of 9 accumulations/sample at near UV range (200-260 nm).
According to this example the method of example 4 was repeated to determine the conformation of VIP fragments in saline and phospholipid micelles. CD spectra measurements were performed after incubation of VIP fragments with phospholipid micelles, at a molar concentration equivalent to VIP (i.e. 9 μg/ml for VIP10-28 fragment and 6 μg/ml for VIP1-12 fragment), for 30 min. A bandwidth of 1.0 nm and a step resolution of 0.5 nm were used to collect the average of 9 accumulations/sample at near UV range (200-260 nm). Specifically, CD spectra of human VIP fragment (1-12) and (10-28) in the presence of phospholipid micelles are shown in FIG. 5. […] These effects correlate well with the % helicity of VIP fragments determined in saline and in the presence of phospholipids (Table 1). […]

physchem = details: for solubility: aqueous with cosolvent or surfactant or cyclodextrin
Method: Solubilization potential of both micelle compositions for a model drug was measured by HPLC after separation of the unincorporated drug.
Excess drug was removed by centrifugation and the supernatant was analyzed by HPLC. […] HPLC eluent was measured with adsorption at 254 nm.
According to this example, micelle compositions of the invention were further characterized. Particularly, the physiochemical properties of sterically stabilized micelles prepared with DSPE conjugated to molecular weight 2000, 3000, and 5000 PEG were analyzed. The critical micelle concentration (CMC) of phospholipids was determined at pH 7.4 and 25° C. using a water-insoluble fluorescent probe (1,6-diphenyl-1,3,5-hexatriene). Micellar size was determined by quasi-elastic light scattering.
The solvent was then removed by vacuum rotary evaporation under a stream of argon to form a dry film. This dry film was further dried under vacuum overnight to remove any traces of remaining solvent. The dried film was rehydrated with isotonic 0.01M HEPES buffer, pH 7.4. The solution was then flushed with argon, sealed and equilibrated for 12 h at room temperature. The unsolubilized excess paclitaxel was removed by centrifugation at 13,000 g for 5 min to obtain a clear dispersion.
The solubilization potentials of SSMM and SSM for paclitaxel were determined by RP-HPLC. The clear aqueous dispersion was diluted with methanol. 20 μl of each sample was injected at least three times into a μBondapak C-18 column, 3.9 mm×30 cm (Waters, Milford, Mass.) equipped with a C18 column guard. The column was eluted with acetonitrile/water (60:40) at 1.0 ml/min (Waters 600). Detection was by UV absorption measurement at 227 nm (Waters 490). Peak areas were calculated by interfacing the detector to an electronic integrator (Hewlett Packard). The drug concentration was calculated from standard curves.

[2] = test system: second order arterioles of the hamster cheek pouch microcirculation; details: Séjourné et al. 1997; cited from earlier work
[3] = test system: second order arterioles of the hamster cheek pouch microcirculation; experiment: Hamster cheek pouch microcirculation, arteriolar diameter during suffusion; format: in vivo
Method: According to this example, the vasorelaxant effects of VIP in a SSM were determined according to the following method. Specifically, adult male golden Syrian hamsters were purchased from Sasco (Omaha, Nebr.). Adult male hamsters with spontaneous hypertension and their normotensive controls were purchased from the Canadian Hybrid Farms (Halls Harbour, NS, Canada). Hypertensive animals have been identified after cross-breeding of hamsters with hereditary cardiomyopathy and normal golden Syrian hamsters. These albino animals have previously been used in our laboratory (Rubinstein et al., Biochem. Biophys. Res. Commun. 183:1117-1123 (1992); Artwohl et al., FASEB J. 10:A629 (1996)). Animals were anesthetized with pentobarbital sodium (6 mg/100 g body weight, i.p.). A tracheotomy was performed to facilitate spontaneous breathing. A femoral vein was cannulated to inject supplemental anesthesia during the experiment (2-4 mg/100 g body weight/h). Body temperature was maintained constant (37-38° C.) and monitored via heating pad and a feed back controller throughout the experiment.
The bioactivity of the VIP in SSM by diffusing it in situ was determined by visualization of the microcirculation of the hamster cheek pouch. The microcirculation of the cheek pouch was visualized locally by a method previously developed in our laboratory (Suzuki et al., Life Sci. 57:1451-1457 (1995); Suzuki et al., Am. J. Physiol. 271:R393-R397 (1996); and Suzuki et al., Am. J. Physiol. 271:H282-H287 (1996)). Briefly, the left cheek pouch was spread over a small plastic baseplate, and an incision was made in the outer skin to expose the cheek pouch membrane. The connective avascular tissue layer was removed, and a plastic chamber was placed over the baseplate and secured in place by suturing the skin around the upper chamber. This forms a triple-layered complex: the baseplate, the exposed cheek pouch membrane, and the upper chamber. After these initial procedures, the hamster is transferred to a heated microscope stage. The chamber was connected to a reservoir containing warmed bicarbonate buffer (37-38° C.) that allowed continuous suffusion of the cheek pouch. The buffer was bubbled continuously with 95% N2-5% CO2 (pH 7.4). […]
The cheek pouch microcirculation was epi-illuminated with a 100-W mercury light source and viewed through a microscope (Nikon, Tokyo, Japan) at a magnification of ×40. […] The inner-wall diameter of second order arterioles ([…]), which modulated vascular resistance in the cheek pouch, (Raud, Acta Physiol. Scand. (Suppl.) 578:1-58 (1989); Suzuki et al., Life Sci. 57:1451-1457 (1995); Suzuki et al., Am. J. Physiol. 271:R393-R397 (1996)) was measured from the video display of the microscope image using a videomicrometer (VIA 100; Boeckeler Instruments, Tucson, Ariz.). […]

anesthetized rats = experiment: Infusion in anesthetized rats, haemodynamics by radioactive microsphere technique; format: in vivo, rat; details: 50 ng/kg/min infused for 30 minutes
Method: According to this aspect of the invention, the effect of infusion of enthelin-1 (ET-1) alone or in a SSM formulation on mean arterial pressure (MAP), cardiac output(CO), total peripheral resistance (TPR), and regional blood circulation in anesthetized rats was examined using a radioactive microsphere technique. SSM with or without ET-1 were prepared according to the method described in Example 11 using DSPE-PEG in saline. Treatments for individual groups consisted of: (i) control, SSM at 2.7 mg/ml (n=6); (ii) ET-1 infusion at 50 ng/kg/min (n=5), and (iii) ET-1 at 50 ng/kg/min in SSM (n=8). Drugs were infused at 0.1 ml/min for 30 minutes.

Molecule | Conformation from CD spectrum in the presence of phospholipid micelles (SSM) [1] | % Helicity (in the presence of) Phospholipids [1] | % Helicity (in the presence of) Saline [1] | Conformation from CD spectrum in saline [1] | further results
NC(=O)CC[C@@H]1NC(=O)[C@H](Cc2ccccc2)NC(=O)[C@H](Cc2ccc(O)cc2)NC(=O)[C@@H](N)CSSC[C@@H](C(=O)N2CCC[C@H]2C(=O)N[C@@H](CCCN=C(N)N)C(=O)NCC(N)=O)NC(=O)[C@H](CC(N)=O)NC1=O [Vasopressin] | primarily random coil conformation | 16% | 8% | primarily random coil conformation | 
C=C(C)[C@@H]1CC[C@]2(C(=O)O)CC[C@]3(C)[C@H](CC[C@@H]4[C@@]5(C)CC[C@H](O)C(C)(C)[C@@H]5CC[C@]43C)[C@@H]12 [betulinic acid] |  |  |  |  | solubility (physchem; solubility in either SSM or SSC): 250 µg/mL (≈ 547 µM)
C=C(C)[C@@H]1CC[C@]2(C(=O)O)CC[C@]3(C)[C@H](CC[C@@H]4[C@@]5(C)CC[C@H](O)C(C)(C)[C@@H]5CC[C@]43C)[C@@H]12 [betullinic acid] |  |  |  |  | solubility in 10 mg/ml DSPE-PEG (physchem): up to 200 μg/ml
CC(=O)[C@H]1CC[C@H]2[C@@H]3CCC4=CC(=O)CC[C@]4(C)[C@H]3CC[C@]12C [progesterone] |  |  |  |  | solubility (physchem; thermodynamic from solid, solubility in 10 mg/ml DSPE-PEG): ≤ 198 µg/mL; solubility (physchem; thermodynamic from solid, solubility of progesterone in DSPE-PEG micelles): 198 ± 7 µg/mL (≈ 630 µM); solubility (physchem; thermodynamic from solid, solubility of progesterone in bile salt micelles): 21 µg/mL
VIP1-12: VIP fragment 1-12 (HSDAVFTDNYTR; Vasoactive intestinal peptide; UniProt P01282 125-136, looked up, fragment) | primarily random coil structure | 0.05% | 0% | primarily random coil structure | 
VIP10-28: VIP fragment 10-28, a selective VIP receptor antagonist (YTRLRKQMAVKKYLNSILN; ends and bridges not checked; UniProt P01282 134-152, looked up, fragment) | predominantly α-helix structure | 18% | 3% | primarily random coil conformation | effect on VIP in SSL response [2]: attenuated; effect on native VIP response [2]: completely abolished; effect on secretin- and secretin in SSM-induced vasodilation ([3]; VIP10-28 (50 nmol) suffused 30 min before and during secretin (5 nmol)): abrogated; effects on arteriolar diameter ([3]; suffusion of VIP10-28 alone (50 nmol)): no significant effects
calmodulin [CaM] |  | 0% | 0% |  | 
enthelin-1 (CSCSSLMDKECVYFCHLDIIW; ends and bridges not checked; cysteine pairing not given here; UniProt P05305 53-73, looked up) [ET-1] |  |  |  |  | Renal vascular resistance (anesthetized rats): 76%; increase in TPR (anesthetized rats): 102%; vascular resistance in brain (anesthetized rats): 62%
secretin | appreciable α-helix conformation |  |  | unordered | increase in arteriolar diameter from baseline ([3]; suffusion of 5 nmol for 7 min): 10.3±0.6%
